# In ChEMBL document CHEMBL1817633, “Evaluation of a cell penetrating prenylated peptide lacking an intrinsic fluorophore via in situ click reaction” (Bioorg Med Chem Lett, 2011):
# Peptide text beside a SMILES is read from it. * marks the point of attachment. Geranylgeranyl = CC(C)=CCC/C(C)=C/CC/C(C)=C/CC/C(C)=C/C*; X1 = O=C(O)c1cc(C(=O)*)ccc1-c1c2ccc(=O)cc-2oc2cc(O)ccc12; Pent4ynoyl = C#CCCC(=O)*
# Legend:
# Format in all cases: ADME, cell-based
# [1] = system: HeLa; experiment: Cellular uptake in human HeLa cells assessed as nuclear localization at 1 uM after 2 hrs by confocal laser scanning microscopy
# [2] = system: HeLa; experiment: Cellular uptake in human HeLa cells at 1 uM after 2 hrs by confocal laser scanning microscopy
# [3] = system: HeLa; experiment: Cellular uptake in human HeLa cells at 1 to 5 uM treated for 1 hr followed by washout measured after 1 hr by flow cytometry
Drug uptake [1],Drug uptake [2],Drug uptake [3],Compound
Active,Active,–,C#CCCC(=O)N[C@@H](CCCCNC(C)=O)C(=O)N[C@@H](C)C(=O)N[C@@H](CCCCN)C(=O)N[C@@H](CCCCN)C(=O)N[C@@H](CO)C(=O)N[C@@H](CCCNC(=N)N)C(=O)N[C@@H](CCCNC(=N)N)C(=O)N[C@@H](CSC/C=C(\C)CC/C=C(\C)CC/C=C(\C)CCC=C(C)C)C(N)=O (Pent4ynoyl-K(Ac)AKKSRRC(Geranylgeranyl)-NH2)
Not Active,Active,Active,C#CCCC(=O)N[C@@H](CCCCNC(=O)c1ccc(-c2c3ccc(=O)cc-3oc3cc(O)ccc23)c(C(=O)O)c1)C(=O)N[C@@H](C)C(=O)N[C@@H](CCCCN)C(=O)N[C@@H](CCCCN)C(=O)N[C@@H](CO)C(=O)N[C@@H](CCCNC(=N)N)C(=O)N[C@@H](CCCNC(=N)N)C(=O)N[C@@H](CSC/C=C(\C)CC/C=C(\C)CC/C=C(\C)CCC=C(C)C)C(N)=O (Pent4ynoyl-K(X1)AKKSRRC(Geranylgeranyl)-NH2)
